Measured values as given in US20170369887A1, “Therapeutic compositions for breast cancer containing protein kinase D1 inhibitor” (SOOKMYUNG WOMEN'S UNIVERSITY INDUSTRY ACADEMIC COOPERATION …, priority 2016, published 2017).

What was measured:
[1] = system: MCF-7-ADR cells; assay: Cell survival rate, WST-8 assay, MCF-7-ADR; type: cell-based, human
Method: […] Cell survival rate was analyzed by WST-8 assay (Sigma-Aldrich) and an optical density was measured at 450 nm using a microplate reader.

[2] = system: MCF-7-ADR cells; assay: Annexin V and propidium iodide (PI) staining; type: cell-based, human; settings: FIG. 4E
[3] = system: MCF-7-ADR cells; assay: CD44+/CD24− surface marker analysis using flow cytometry; type: cell-based, human; settings: 1 μM, FIG. 3C
Method: Cells were collected after transfection with RNAi of PRKD1 or CRT0066101 treatment and expression of CD44 +/CD24-surfaces was evaluated. The cells were washed with 2% FBS, stained with anti-CD44 (APC-conjugated; BD Biosciences) and anti-CD24 (BD Biosciences) in a PBS containing 2% FBS, and placed on ice in the dark for 30 minutes. The cells were washed again with a cold PBS buffer, loaded with >10,000 cells in a BD CantoII flow cytometer (BD Biosciences), and then analyzed by flow cytometry using FACSDiVa software (BD Biosciences).

[4] = system: GSK3/β-catenin signaling; assay: Western blot of PKD/PKCμ phosphorylation and GSK3/β-catenin signaling in MCF-7-ADR cells; type: cell-based, human; settings: 1 μM or 5 μM, FIG. 3A
Method: CRT0066101 was purchased from R&D Systems (Minneapolis, Minn., USA); this drug was resuspended in sterile distilled water and used for in vivo studies. To treat CRT0066101, MCF-7-ADR cells (American Type Culture Collection, Manassas, Va., USA) were seeded and 0.1 to 10 μM CRT0066101 was added and incubated for 1 hour. WST-8 was purchased from Enzo Life Sciences, Inc. (Farmingdale, N.Y., USA). PRKD1 siRNA and scrambled siRNA (Santa Cruz Biotechnology, Santa Cruz, Calif., USA) were transfected by using Lipofectamine RNAiMAX (Invitrogen, Carlsbad, Calif., USA).
(§1) A total of 30 μg of a protein extract was isolated by 8% SDS-PAGE and the protein was electrophoretically transferred to a PVDF membrane. The primary antibodies used were phosphorylated PKD/PKCμ (Ser916), GSK3β, phosphorylated GSK3α (Ser21)/β (Ser9), and β-catenin. These antibodies were purchased from Cell Signaling Technology (Danvers, Mass., USA) and the PKD/PKCμ antibody was purchased from Santa Cruz Biotechnology. (β-actin (Bethyl Laboratories, Montgomery, Tex., USA) was used as a loading control. The membrane was washed with 1×PBS/0.1% Tween 20 and the bound proteins were detected with an enhanced chemiluminescent reagent (Amersham Pharmacia Biotech, Parsippany, N.J., USA).

[5] = system: MCF-7 cells; assay: Cell survival rate, WST-8 assay, MCF-7; type: cell-based, human; settings: 0.1 to 5 μM, FIG. 12B
[6] = target: T1, PRKD1 autophosphorylation (Homo sapiens, UniProt Q15139); settings: reference [16]; cited from earlier work
T1 sequence (Q15139 1-912): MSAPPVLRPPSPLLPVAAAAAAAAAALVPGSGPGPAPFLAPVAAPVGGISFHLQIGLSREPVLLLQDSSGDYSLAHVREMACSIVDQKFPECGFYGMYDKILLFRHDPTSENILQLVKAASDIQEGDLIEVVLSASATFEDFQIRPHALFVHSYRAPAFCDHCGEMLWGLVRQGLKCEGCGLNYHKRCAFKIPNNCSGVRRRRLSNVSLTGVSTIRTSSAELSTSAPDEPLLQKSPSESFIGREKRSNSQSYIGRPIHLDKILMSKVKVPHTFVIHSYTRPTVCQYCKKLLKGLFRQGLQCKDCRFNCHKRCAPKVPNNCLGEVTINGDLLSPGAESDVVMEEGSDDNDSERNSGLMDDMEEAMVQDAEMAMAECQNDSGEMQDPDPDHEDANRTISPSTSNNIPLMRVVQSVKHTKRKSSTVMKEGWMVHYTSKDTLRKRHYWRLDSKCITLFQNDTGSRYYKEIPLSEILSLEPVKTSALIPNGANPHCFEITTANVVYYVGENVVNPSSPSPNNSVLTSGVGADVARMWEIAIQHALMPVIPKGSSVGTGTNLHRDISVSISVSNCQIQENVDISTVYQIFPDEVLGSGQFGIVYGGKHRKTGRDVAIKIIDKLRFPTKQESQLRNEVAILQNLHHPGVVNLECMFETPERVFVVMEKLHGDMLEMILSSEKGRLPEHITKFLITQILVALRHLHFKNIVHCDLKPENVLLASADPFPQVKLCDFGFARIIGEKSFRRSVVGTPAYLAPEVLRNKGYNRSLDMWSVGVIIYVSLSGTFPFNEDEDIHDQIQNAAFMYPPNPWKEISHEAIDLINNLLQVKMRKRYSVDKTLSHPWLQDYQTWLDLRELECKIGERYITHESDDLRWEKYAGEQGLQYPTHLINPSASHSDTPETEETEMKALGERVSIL

[7] = system: MCF-7-ADR cells; assay: Tumorsphere formation assay (TSA); type: cell-based, human; settings: 1 μM or 5 μM, vs control, FIG. 3B
Method: For incubation of tumorspheres, cells (2000 cells/mL) were suspended and incubated in serum-free DMEM/F12 (welGENE) containing 1% penicillin, B27 (1:50; Gibco; Thermo Fisher), 20 ng/mL of an epidermal growth factor (Prospec, East Brunswick, N.J., (WelGENE) […] of insulin (Sigma-Aldrich, St. Louis, Mo., USA) and 0.4% bovine serum albumin (Sigma-Aldrich). After about 10 days, the plate was analyzed and formation of tumorspheres was verified and quantified with a microscope (Olympus IX71; Olympus, Tokyo, Japan). In order to count the number of tumorspheres, MCF-7-ADR cells were filtered and quantified by a strainer (BD Biosciences, East Rutherford, N.J., USA) having a pore size of 70 μm. Treatment with CRT0066101 was performed on 6-th day and 8-th day after incubation.

[8] = system: GSK3/β-catenin signaling; assay: Western blot of GSK3/β-catenin signaling in MCF-7 cells; type: cell-based, human; settings: FIG. 12A
Method: as §1

[9] = system: MCF-7-ADR cells; assay: MCF-7-ADR xenograft in nude mice treated with CRT0066101; type: in vivo, mouse
Method: A control or miR-32a overexpressed tumor and a carrier or CRT0066101 treated tumor were cut and paraffin-treated slides were used. The paraffin was removed from the slides, rehydrated 3 to 4 times in Histoclear, and then passed sequentially through ethanol at different concentrations (100%, 95%, 80%, and 70%). Antigen reconstitution was performed by immersing fragments in a 0.01M citric acid solution (pH 6.0) and boiling the fragments in a microwave for 15 minutes. In the case of TUNEL analysis, an in-situ apoptosis detection kit, a fluorescent material (Roche, Indianapolis, USA) labeled apoptotic cells, and a Ki-67 primary antibody (Vector Lab, USA) were applied to the fragments and incubated at 4° C. overnight. Thereafter, the slides were incubated with DAPI and secondary antibody for two hours. Finally, the slides were treated with a mounting solution (Dako) and a photograph was taken with a confocal microscope (Zeiss).
All studies, including the use of nude mice, were approved by the committee on animal protection and use of the Yonsei University Medical center (2015-0087) and performed under conditions according to facilities without specific pathogens and the guideline of the committee. Mice were anesthetized with 150 μl saline/zoletil/rompun (7:1:1) outside each femoral region and subcutaneously injected with 1.5×10^6 of MCF-7-ADR cells. Six mice were randomly grouped and started to be treated from 10-th day after tumor graft. […] The tumor size was measured every 3 to 4 days using a caliper from formation of touched tumor to termination and the tumor volume was calculated by Equation of length×width^2×0.5236. The mice were sacrificed in a 7.5% CO2 chamber and tumors were isolated and used for immunohistochemistry and other assays.

[10] = treated tumor vs control, FIG. 5G

SMILES	cell survival rate ([1]; MCF-7-ADR cells exposed to doxorubicin at different doses, FIG. 4A)	initiation of apoptosis ([2]; treated cells vs control)	cell survival rate ([1]; MCF-7-ADR cells, 0.1 to 5 μM, FIG. 4C)	cell survival rate, combination with doxorubicin ([1]; MCF-7-ADR, CRT0066101 combined with doxorubicin, vs CRT0066101 alone, FIG. 4D)	number (Q1) of CD44+/CD24− [3]	phosphorylation of PKD/PKCμ and GSK3/β-catenin [4]	cell survival rate [5]	growth of pancreatic cancer [6]	number of tumorspheres (>70 μm) [7]	GSK3/β-catenin signaling [8]	level of apoptosis in doxorubicin-treated cells ([2]; CRT0066101 added to doxorubicin-treated cells)	side effects (sign of toxicity, weight loss) ([9]; 65 mg/kg daily for 4 weeks, all animals, FIG. 5E)	tumor size ([9]; 65 mg/kg daily for 4 weeks, oral, vs untreated control, FIG. 5D)	tumor weight ([9]; 65 mg/kg daily for 4 weeks, vs control tumor, FIG. 5E)	change in mouse's weight ([9]; 65 mg/kg orally daily for 4 weeks, FIG. 5E)	volume of tumor ([9]; 65 mg/kg orally daily for 4 weeks, vs control tumor, FIG. 5E)	apoptosis in tumor, TUNEL analysis [9, 10]	proliferation in tumor, Ki-67 staining [9, 10]	phosphorylated PKD/PKCμ through GSK3/β-catenin signaling in tumor ([9]; western blot of tumor, FIG. 5F)
COc1cccc2c1C(=O)c1c(O)c3c(c(O)c1C2=O)C[C@@](O)(C(=O)CO)C[C@@H]3O[C@H]1C[C@H](N)[C@H](O)[C@H](C)O1 [doxorubicin]	reduced dose-dependently	increased	–	–	–	–	–	–	–	–	–	–	–	–	–	–	–	–	–
CC[C@@H](N)CNc1ccnc(-c2cc(-c3cnn(C)c3)ccc2O)n1.Cl.Cl [CRT0066101]	–	–	decreased cell survival rate dose-dependently	significantly lowered	also decreased	inhibited	did not decrease	blocked growth	decreased dose-dependently	not affected	increased	did not cause side effects	reduced	reduced	not detected	reduced	apoptosis increased	proliferation decreased	down regulation
